Results taken from ChEMBL document CHEMBL4673231, “Novel isoniazid embedded triazole derivatives: Synthesis, antitubercular and antimicrobial activity evaluation” (Bioorg Med Chem Lett, 2020).
Converted amounts (≈) assume the structure as drawn. The source made the active and inactive calls. The rule behind the calls is not given here.

How the values were obtained:
[1] = system: Mycobacterium tuberculosis; assay: Antimycobacterial activity against Mycobacterium tuberculosis H37Rv assessed as reduction in microbial growth incubated for 7 days by alamar blue assay; format: functional; conditions: 168 h, time 7 day
[2] = Cytotoxicity against mouse RAW264.7 cells assessed as reduction in cell viability at 25 ug/ml incubated for 48 hrs by MTT assay; format: cell-based; conditions: at 25 µg/mL, read-out: INH
Staphylococcus aureus [3] = assay: Antibacterial activity against Staphylococcus aureus assessed as diameter of inhibition zone at 1 mg/ml incubated for 24 hrs by agar well diffusion assay; format: functional; conditions: for zone of inhibition at 1000 µg/mL: read-out: DIZ
Bacillus cereus = assay: Antibacterial activity against Bacillus cereus assessed as diameter of inhibition zone at 1 mg/ml incubated for 24 hrs by agar well diffusion assay; format: functional; conditions: for zone of inhibition at 1000 µg/mL: read-out: DIZ
Bacillus subtilis = assay: Antibacterial activity against Bacillus subtilis assessed as diameter of inhibition zone at 1 mg/ml incubated for 24 hrs by agar well diffusion assay; format: functional; conditions: read-out: DIZ
Klebsiella aerogenes [4] = assay: Antibacterial activity against Enterobacter aerogenes assessed as diameter of inhibition zone at 1 mg/ml incubated for 24 hrs by agar well diffusion assay; format: functional; conditions: read-out: DIZ
Escherichia coli = assay: Antibacterial activity against Escherichia coli assessed as diameter of inhibition zone at 1 mg/ml incubated for 24 hrs by agar well diffusion assay; format: functional; conditions: read-out: DIZ
Salmonella typhi [5] = assay: Antibacterial activity against Salmonella typhi assessed as diameter of inhibition zone at 1 mg/ml incubated for 24 hrs by agar well diffusion assay; format: functional, Salmonella enterica subsp. enterica serovar Typhi; conditions: Salmonella enterica, read-out: DIZ
Pseudomonas aeruginosa = assay: Antibacterial activity against Pseudomonas aeruginosa assessed as diameter of inhibition zone at 1 mg/ml incubated for 24 hrs by agar well diffusion assay; format: functional; conditions: for zone of inhibition at 1000 µg/mL: read-out: DIZ
Shigella boydii = assay: Antibacterial activity against Shigella boydii assessed as diameter of inhibition zone at 1 mg/ml incubated for 24 hrs by agar well diffusion assay; format: functional; conditions: for zone of inhibition at 1000 µg/mL: read-out: DIZ
[6] = system: Salmonella enterica subsp. enterica serovar Abony; assay: Antibacterial activity against Salmonella enterica subsp. enterica serovar Abony assessed as diameter of inhibition zone at 1 mg/ml incubated for 24 hrs by agar well diffusion assay; format: functional; conditions: for zone of inhibition at 1000 µg/mL: read-out: DIZ
Aspergillus niger = assay: Antifungal activity against Aspergillus niger assessed as diameter of inhibition zone at 1 mg/ml incubated for 24 hrs by agar well diffusion assay; format: functional; conditions: read-out: DIZ
Saccharomyces cerevisiae = assay: Antifungal activity against Saccharomyces cerevisiae assessed as diameter of inhibition zone at 1 mg/ml incubated for 24 hrs by agar well diffusion assay; format: functional; conditions: for zone of inhibition at 1000 µg/mL: read-out: DIZ
Salmonella typhi [7] = assay: Antibacterial activity against Salmonella typhi ATCC 9207 by CLSI method; format: functional, Salmonella enterica subsp. enterica serovar Typhi; conditions: Salmonella enterica
Staphylococcus aureus [8] = assay: Antibacterial activity against Staphylococcus aureus ATCC 6538 by CLSI method; format: functional
Klebsiella aerogenes [9] = assay: Antibacterial activity against Enterobacter aerogenes ATCC 13048 by CLSI method; format: functional

O=C(N/N=C/c1cc([N+](=O)[O-])ccc1OCc1cn(-c2ccccc2Cl)nn1)c1ccncc1
MIC [1]: 1.56 µg/mL | cytotoxicity at 48 h, 25 ug/ml [2]: 24.2% | zone of inhibition at 1000 µg/mL (Staphylococcus aureus [3]): 12 mm | zone of inhibition at 1000 µg/mL (Bacillus cereus): 11 mm | zone of inhibition at 1000 µg/mL (Bacillus subtilis): 9 mm | zone of inhibition at 1000 µg/mL (Klebsiella aerogenes [4]): 10 mm | zone of inhibition at 1000 µg/mL (Escherichia coli): 12 mm | zone of inhibition at 1000 µg/mL (Salmonella typhi [5]): 10 mm | diameter of the inhibition zone (DIZ) (Pseudomonas aeruginosa): inactive | zone of inhibition at 1000 µg/mL (Shigella boydii): 7 mm | diameter of the inhibition zone (DIZ) [6]: inactive | zone of inhibition at 1000 µg/mL (Aspergillus niger): 10 mm | zone of inhibition at 1000 µg/mL (Saccharomyces cerevisiae): 12 mm | MIC (Salmonella typhi [7]): 170 µg/mL (≈ 356 µM) | MIC (Staphylococcus aureus [8]): 200 µg/mL (≈ 419 µM) | MIC (Klebsiella aerogenes [9]): 130 µg/mL (≈ 272 µM)

COc1ccc(-n2cc(COc3ccc([N+](=O)[O-])cc3/C=N/NC(=O)c3ccncc3)nn2)cc1
MIC [1]: > 25 µg/mL | zone of inhibition at 1000 µg/mL (Staphylococcus aureus [3]): 10 mm | zone of inhibition at 1000 µg/mL (Bacillus cereus): 12 mm | zone of inhibition at 1000 µg/mL (Bacillus subtilis): 6 mm | zone of inhibition at 1000 µg/mL (Klebsiella aerogenes [4]): 14 mm | zone of inhibition at 1000 µg/mL (Escherichia coli): 12 mm | zone of inhibition at 1000 µg/mL (Salmonella typhi [5]): 12 mm | zone of inhibition at 1000 µg/mL (Pseudomonas aeruginosa): 12 mm | zone of inhibition at 1000 µg/mL (Shigella boydii): 14 mm | zone of inhibition at 1000 µg/mL [6]: 13 mm | zone of inhibition at 1000 µg/mL (Aspergillus niger): 11 mm | MIC (Salmonella typhi [7]): 340 µg/mL (≈ 718 µM) | MIC (Staphylococcus aureus [8]): 180 µg/mL (≈ 380 µM) | MIC (Klebsiella aerogenes [9]): 150 µg/mL (≈ 317 µM)

CN(C)[C@@H]1C(O)=C(C(N)=O)C(=O)[C@@]2(O)C(O)=C3C(=O)c4c(O)cccc4[C@@](C)(O)[C@H]3C[C@@H]12 [TETRACYCLINE]
zone of inhibition at 1000 µg/mL (Staphylococcus aureus [3]): 22 mm | zone of inhibition at 1000 µg/mL (Bacillus cereus): 32 mm | zone of inhibition at 1000 µg/mL (Bacillus subtilis): 18 mm | zone of inhibition at 1000 µg/mL (Klebsiella aerogenes [4]): 24 mm | zone of inhibition at 1000 µg/mL (Escherichia coli): 29 mm | zone of inhibition at 1000 µg/mL (Salmonella typhi [5]): 28 mm | zone of inhibition at 1000 µg/mL (Pseudomonas aeruginosa): 28 mm | zone of inhibition at 1000 µg/mL (Shigella boydii): 29 mm | zone of inhibition at 1000 µg/mL [6]: 27 mm | MIC (Salmonella typhi [7]): 20 µg/mL (≈ 45 µM) | MIC (Staphylococcus aureus [8]): 20 µg/mL (≈ 45 µM) | MIC (Klebsiella aerogenes [9]): 15 µg/mL (≈ 33.8 µM)

O=C(N/N=C/c1cc([N+](=O)[O-])ccc1OCc1cn(-c2cccc(Cl)c2)nn1)c1ccncc1
MIC [1]: 12.5 µg/mL | cytotoxicity at 48 h, 25 ug/ml [2]: 20.1% | zone of inhibition at 1000 µg/mL (Staphylococcus aureus [3]): 15 mm | zone of inhibition at 1000 µg/mL (Bacillus cereus): 10 mm | zone of inhibition at 1000 µg/mL (Bacillus subtilis): 11 mm | zone of inhibition at 1000 µg/mL (Klebsiella aerogenes [4]): 13 mm | zone of inhibition at 1000 µg/mL (Escherichia coli): 10 mm | zone of inhibition at 1000 µg/mL (Pseudomonas aeruginosa): 8 mm | zone of inhibition at 1000 µg/mL (Shigella boydii): 12 mm | zone of inhibition at 1000 µg/mL [6]: 10 mm | zone of inhibition at 1000 µg/mL (Aspergillus niger): 9 mm | zone of inhibition at 1000 µg/mL (Saccharomyces cerevisiae): 10 mm | MIC (Salmonella typhi [7]): 140 µg/mL (≈ 293 µM) | MIC (Staphylococcus aureus [8]): 220 µg/mL (≈ 460 µM) | MIC (Klebsiella aerogenes [9]): 260 µg/mL (≈ 544 µM)

COc1ccccc1-n1cc(COc2ccc([N+](=O)[O-])cc2/C=N/NC(=O)c2ccncc2)nn1
MIC [1]: > 25 µg/mL | zone of inhibition at 1000 µg/mL (Staphylococcus aureus [3]): 12 mm | zone of inhibition at 1000 µg/mL (Bacillus cereus): 12 mm | zone of inhibition at 1000 µg/mL (Bacillus subtilis): 12 mm | zone of inhibition at 1000 µg/mL (Klebsiella aerogenes [4]): 12 mm | zone of inhibition at 1000 µg/mL (Escherichia coli): 11 mm | zone of inhibition at 1000 µg/mL (Salmonella typhi [5]): 11 mm | zone of inhibition at 1000 µg/mL (Pseudomonas aeruginosa): 8 mm | zone of inhibition at 1000 µg/mL (Shigella boydii): 13 mm | zone of inhibition at 1000 µg/mL [6]: 8 mm | zone of inhibition at 1000 µg/mL (Aspergillus niger): 10 mm | zone of inhibition at 1000 µg/mL (Saccharomyces cerevisiae): 10 mm | MIC (Salmonella typhi [7]): 230 µg/mL (≈ 486 µM) | MIC (Staphylococcus aureus [8]): 450 µg/mL (≈ 950 µM) | MIC (Klebsiella aerogenes [9]): 370 µg/mL (≈ 781 µM)

COc1cccc(-n2cc(COc3ccc([N+](=O)[O-])cc3/C=N/NC(=O)c3ccncc3)nn2)c1
MIC [1]: 0.78 µg/mL | cytotoxicity at 48 h, 25 ug/ml [2]: 23.9% | diameter of the inhibition zone (DIZ) (Staphylococcus aureus [3]): inactive | diameter of the inhibition zone (DIZ) (Bacillus cereus): inactive | zone of inhibition at 1000 µg/mL (Bacillus subtilis): 12 mm | zone of inhibition at 1000 µg/mL (Klebsiella aerogenes [4]): 6 mm | zone of inhibition at 1000 µg/mL (Escherichia coli): 9 mm | zone of inhibition at 1000 µg/mL (Salmonella typhi [5]): 12 mm | zone of inhibition at 1000 µg/mL (Pseudomonas aeruginosa): 10 mm | diameter of the inhibition zone (DIZ) (Shigella boydii): inactive | zone of inhibition at 1000 µg/mL [6]: 8 mm | zone of inhibition at 1000 µg/mL (Aspergillus niger): 13 mm | diameter of the inhibition zone (DIZ) (Saccharomyces cerevisiae): inactive
